Results as given in the supplement of paper PMC10307832.

Key:
Experiment in all cases: relative viability (nuclei count vs DMSO), 5 days (fraction); higher = more cells survive
[1] = compound: C/C(=N\NC(=S)N1CCC1)/C2=CC=CC=N2 + CC(C)C[C@H](NC(=O)[C@H](Cc1ccccc1)NC(=O)c1cnccn1)B(O)O [Bortezomib] (partner 0.002 µM)
Method in brief: (§1)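 Lung cancer cell lines were seeded in 1536-well plates and dosed by pin tool the next day, with either a single drug or a fixed anchor-drug dose combined with five library-drug doses (not always all listed) spaced in √10 steps. Five days later, one step fixed the cells and stained their nuclei (final 0.05% Triton X-100, 1% formaldehyde, 1 ug/ml Hoechst), and nuclei were counted on 4× images. Relative viability is the nuclei count in treated wells divided by the count in vehicle wells, and each value is the median of duplicate plates.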

[2] = compound: C/C(=N\NC(=S)N1CCC1)/C2=CC=CC=N2 + CS(=O)(=O)CCNCc1ccc(-c2ccc3ncnc(Nc4ccc(OCc5cccc(F)c5)c(Cl)c4)c3c2)o1 [Lapatinib] (partner 2 µM)
Method in brief: as §1

[3] = compound: C/C(=N\NC(=S)N1CCC1)/C2=CC=CC=N2 + NC(=O)Nc1cc(-c2cccc(F)c2)sc1C(=O)N[C@H]1CCCNC1 [AZD7762] (partner 0.2 µM)
Method in brief: as §1

[4] = compound: C/C(=N\NC(=S)N1CCC1)/C2=CC=CC=N2 + Nc1ncn([C@H]2C[C@H](O)[C@@H](CO)O2)c(=O)n1 [Decitabine] (partner 2 µM)
Method in brief: as §1

Row | Cell Line | relative viability ([1]; first compound 0.05 µM) | relative viability ([1]; first compound 0.1581 µM) | relative viability ([1]; first compound 0.5 µM) | relative viability ([1]; first compound 1.581 µM) | relative viability ([1]; first compound 5 µM) | relative viability ([2]; first compound 0.05 µM) | relative viability ([2]; first compound 0.1581 µM) | relative viability ([2]; first compound 0.5 µM) | relative viability ([2]; first compound 1.581 µM) | relative viability ([2]; first compound 5 µM) | relative viability ([3]; first compound 0.05 µM) | relative viability ([3]; first compound 0.1581 µM) | relative viability ([3]; first compound 0.5 µM) | relative viability ([3]; first compound 1.581 µM) | relative viability ([3]; first compound 5 µM) | relative viability ([4]; first compound 0.05 µM) | relative viability ([4]; first compound 0.1581 µM) | relative viability ([4]; first compound 0.5 µM) | relative viability ([4]; first compound 1.581 µM) | relative viability ([4]; first compound 5 µM)
1 | NCI-H727 | 0.171 | 0.214 | 0.156 | 0.174 | 0.184 | 0.194 | 0.222 | 0.25 | 0.232 | 0.267 | 0.265 | 0.249 | 0.311 | 0.228 | 0.312 | 0.406 | 0.366 | 0.394 | 0.398 | 0.466
2 | NCI-H838 | 0.165 | 0.181 | 0.172 | 0.134 | 0.145 | 0.185 | 0.186 | 0.212 | 0.149 | 0.164 | 0.579 | 0.684 | 0.653 | 0.616 | 0.637 | 0.258 | 0.261 | 0.265 | 0.192 | 0.2
3 | NCI-H1355 | 0.2 | 0.205 | 0.21 | 0.212 | 0.195 | 0.203 | 0.238 | 0.205 | 0.167 | 0.18 | 0.168 | 0.17 | 0.135 | 0.146 | 0.155 | 0.206 | 0.207 | 0.189 | 0.172 | 0.157
4 | NCI-H1437 | 0.121 | 0.137 | 0.0867 | 0.0717 | 0.0851 | 0.127 | 0.128 | 0.109 | 0.0868 | 0.0855 | 0.353 | 0.278 | 0.243 | 0.239 | 0.176 | 0.263 | 0.248 | 0.246 | 0.199 | 0.172
5 | NCI-H1651 | 0.167 | 0.149 | 0.151 | 0.15 | 0.137 | 0.117 | 0.119 | 0.131 | 0.0681 | 0.0861 | 0.0886 | 0.101 | 0.0929 | 0.0496 | 0.0554 | 0.127 | 0.114 | 0.103 | 0.0618 | 0.0864
6 | NCI-H1666 | 0.218 | 0.271 | 0.232 | 0.198 | 0.221 | 0.229 | 0.27 | 0.273 | 0.198 | 0.228 | 0.304 | 0.398 | 0.352 | 0.3 | 0.331 | 0.367 | 0.368 | 0.411 | 0.329 | 0.375
7 | NCI-H1734 | 0.228 | 0.205 | 0.174 | 0.123 | 0.107 | 0.162 | 0.141 | 0.15 | 0.115 | 0.12 | 0.124 | 0.128 | 0.139 | 0.0896 | 0.101 | 0.136 | 0.152 | 0.132 | 0.123 | 0.102
8 | NCI-H1755 | 0.331 | 0.287 | 0.208 | 0.206 | 0.204 | 0.249 | 0.173 | 0.195 | 0.205 | 0.191 | 0.357 | 0.262 | 0.253 | 0.256 | 0.292 | 0.503 | 0.664 | 0.311 | 0.271 | 0.346
9 | NCI-H1792 | 0.478 | 0.5 | 0.219 | 0.16 | 0.126 | 0.371 | 0.38 | 0.179 | 0.193 | 0.104 | 0.107 | 0.0965 | 0.0559 | 0.0274 | 0.0333 | 0.333 | 0.172 | 0.102 | 0.0665 | 0.0895
10 | NCI-H1915 | 0.319 | 0.182 | 0.159 | 0.149 | 0.137 | 0.195 | 0.182 | 0.157 | 0.136 | 0.133 | 0.16 | 0.114 | 0.134 | 0.119 | 0.122 | 0.115 | 0.123 | 0.144 | 0.124 | 0.148
